The values below come from patent US10954214B2 (Janssen Pharmaceutica NV, priority 2016, dated 2021).

The target of test [1] is full-length MALT1 protein (Strep-MALT1(1-824)-His) (Homo sapiens (Human), UniProt Q9UDY8). The test can be described thus: MALT1 Biochemical Protease Assay (Ac-LRSR-AMC substrate). As to conditions: 10 nM FL MALT1, 200 μM Ac-LRSR-AMC, 4 h at RT; read-out: MALT1_Biochemical activity (Ac-LRSR-amc) IC50. The essentials: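 Fluorescence from AMC release off the quenched LRSR substrate was read after a 4 h reaction at RT. Values were normalised to no-enzyme and uninhibited controls and fitted for IC50 and Hill coefficient.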
Chain of full-length MALT1 protein (Strep-MALT1(1-824)-His) (Q9UDY8 whole entry): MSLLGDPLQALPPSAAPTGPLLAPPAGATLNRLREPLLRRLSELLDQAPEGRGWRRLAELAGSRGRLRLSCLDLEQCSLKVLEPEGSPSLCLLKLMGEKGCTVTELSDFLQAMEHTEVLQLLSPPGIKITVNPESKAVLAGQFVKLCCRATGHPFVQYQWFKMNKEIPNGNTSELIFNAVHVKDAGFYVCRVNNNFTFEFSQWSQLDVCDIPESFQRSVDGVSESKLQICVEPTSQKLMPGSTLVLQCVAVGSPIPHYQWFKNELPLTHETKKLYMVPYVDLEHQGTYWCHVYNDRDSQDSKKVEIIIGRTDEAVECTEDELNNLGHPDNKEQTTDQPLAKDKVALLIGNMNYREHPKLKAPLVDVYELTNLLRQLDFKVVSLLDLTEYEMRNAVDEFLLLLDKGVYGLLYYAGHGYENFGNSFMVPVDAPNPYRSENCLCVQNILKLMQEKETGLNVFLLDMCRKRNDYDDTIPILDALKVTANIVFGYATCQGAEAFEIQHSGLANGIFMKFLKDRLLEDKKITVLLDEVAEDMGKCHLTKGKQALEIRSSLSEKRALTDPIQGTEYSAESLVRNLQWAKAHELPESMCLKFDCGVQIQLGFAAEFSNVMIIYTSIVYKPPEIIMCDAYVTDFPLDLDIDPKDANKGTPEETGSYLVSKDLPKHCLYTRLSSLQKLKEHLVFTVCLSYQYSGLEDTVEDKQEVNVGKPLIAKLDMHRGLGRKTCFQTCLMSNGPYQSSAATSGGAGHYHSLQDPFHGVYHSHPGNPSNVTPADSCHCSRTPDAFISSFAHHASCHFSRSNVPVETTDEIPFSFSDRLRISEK

For test [2], the system named is IL10 secretion by OCI-LY3 ABC-DLBCL cells. The experiment in a line: Human IL10 Mesoscale assay (OCI-LY3). In kind it is cell-based. As to conditions: Homo sapiens, 24 h. On the procedure:
(§1) NFKB signaling regulates the secretion of multiple cytokines, including IL6 and IL10. Secretion of the cytokines IL6 and IL10 by TMD8 or OCI-LY3 ABC-DLBCL cells was measured using a mesoscale assay. Inhibition of NFKB signaling by MALT1 or BTK inhibitors results in a decrease of IL6/10 secretion.
(§2) TMD8 or OCI-LY3 cells were propagated in RPMI-1640 (Sigma Aldrich) supplemented with 10% fetal bovine serum (HyClone), 1 mM sodium pyruvate (Invitrogen), 2 mM L-glutamine (Sigma Aldrich) and 1% PenStrep (Sigma Aldrich). Cell passage number should not exceed 30. Cells should be kept between 0.5-2.5 million cells per mL during culturing and cells should be supplemented every 2-3 days with fresh 50 μM beta-mercaptoenthanol. No beta-mercaptoethanol was used during the mesoscale assay.
(§3) For the Mesoscale assay, 100,000 TMD8 or OCI-LY3 cells were seeded per well into black-colored 96-well plates with clear bottom (Corning #3904) and test compounds were added in 9 dilution steps (1:2) ranging from 15 μM to 58.6 nM (final DMSO concentration 0.3%). DMSO control wells were used to determine the maximum signal (High Control (HC)). Treatment with the BTK inhibitor RN486 in a dose range from 30 nM to 131 pM (9 dilutions of 1:2) served as a positive control for NFKB pathway inhibition and was used to determine the maximum inhibition (Low Control (LC)). Compounds and cells were incubated for 24 h at 37° C. and 5% CO2 (assay volume is 150 μL). After 24 h of incubation 50 μL of the supernatant was transferred to a MSD plate (V-Plex Proinflammation Panel 1 (human) kit, Mesoscale (MSD)) and incubated for 2 h with vigorous shaking (600 rpm) at room temperature. Following incubation, plates were washed 3× with PBS+0.05% Tween-20 and 25 μL detection antibody solution (IL6 & IL10 antibodies in diluent 3 (MSD)) was added per well followed by 2 h of incubation with vigorous shaking (600 rpm) at room temperature. After 3× washes with PBS+0.05% Tween-20, plates were incubated with 150 μL 2× Read Buffer T and read on SECTOR imager.

Test [3] has as its system IL6 secretion by OCI-LY3 ABC-DLBCL cells. The experiment in a line: Human IL6 Mesoscale assay (OCI-LY3). As to conditions: Homo sapiens, 24 h. In kind it is cell-based. How it is done: as §1, §2, §3

On to `C[C@@H](O)c1ncc(-n2ncc(C(=O)Nc3cnc(-n4nccn4)c(Cl)c3)c2C(F)(F)F)c2ccccc12` (single isomer, unassigned) [Cpd 442, (*R)—N-(5-chloro-6-(2H-1,2,3-triazol-2-yl)pyridin-3-yl)-1-(1-(1-hydroxyethyl)isoquinolin-4-yl)-5-(trifluoromethyl)-1H-pyrazole-4-carboxamide], for which the IC50 in test [1] came to 62 nM; in test [2] it was 112 nM; in test [3] it was 162 nM.

As for `C[C@H](O)c1nccc2c(-n3ncc(C(=O)Nc4cnc(-n5nccn5)c(Cl)c4)c3C(F)(F)F)cccc12` (single isomer, unassigned) [Cpd 445, (*S)—N-(5-chloro-6-(2H-1,2,3-triazol-2-yl)pyridin-3-yl)-1-(1-(1-hydroxyethyl)isoquinolin-5-yl)-5-(trifluoromethyl)-1H-pyrazole-4-carboxamide], the IC50 in test [1] was 79 nM; in test [2], 93 nM; in test [3], 186 nM.

Consider `O=C(Nc1cnc(-n2nc3ccncc3n2)c(Cl)c1)c1cnn(-c2cccc3ncccc23)c1C(F)(F)F` [Cpd 162, N-(6-(2H-[1,2,3]triazolo[4,5-c]pyridin-2-yl)-5-chloropyridin-3-yl)-1-(quinolin-5-yl)-5-(trifluoromethyl)-1H-pyrazole-4-carboxamide], for which the IC50 in test [1] is 363 nM; in test [2], 309 nM; in test [3], 437 nM.

As for `O=C(Nc1cnc(-n2nnc3cnccc32)c(Cl)c1)c1cnn(-c2cccc3ncccc23)c1C(F)(F)F` [Cpd 163, N-(6-(1H-[1,2,3]triazolo[4,5-c]pyridin-1-yl)-5-chloropyridin-3-yl)-1-(quinolin-5-yl)-5-(trifluoromethyl)-1H-pyrazole-4-carboxamide], the IC50 in test [1] came to 224 nM; in test [2] it was 71 nM; in test [3], 95 nM.

As for `O=C(Nc1cnc(-n2nnc3cccnc32)c(Cl)c1)c1cnn(-c2cccc3ncccc23)c1C(F)(F)F` [Cpd 165, N-(6-(3H-[1,2,3]triazolo[4,5-b]pyridin-3-yl)-5-chloropyridin-3-yl)-1-(quinolin-5-yl)-5-(trifluoromethyl)-1H-pyrazole-4-carboxamide], the IC50 turned out to be 245 nM in test [1], 339 nM in test [2] and 447 nM in test [3].

Take `O=C(Nc1ccc(-c2n[nH]c(=O)[nH]2)c(Cl)c1)c1cnn(-c2cccc3ncccc23)c1C(F)(F)F` [Cpd 166, N-(3-chloro-4-(5-oxo-4,5-dihydro-1H-1,2,4-triazol-3-yl)phenyl)-1-(quinolin-5-yl)-5-(trifluoromethyl)-1H-pyrazole-4-carboxamide]: the figures for the IC50 in test [1], in test [2] and in test [3] were 229 nM, 479 nM and 457 nM, respectively.

As to `O=C(Nc1cnc(-n2nncc2CO)c(Cl)c1)c1cnn(-c2cccc3c(=O)[nH]ccc23)c1C(F)(F)F` [Cpd 168, N-(5-chloro-6-(5-(hydroxymethyl)-1H-1,2,3-triazol-1-yl)pyridin-3-yl)-1-(1-oxo-1,2-dihydroisoquinolin-5-yl)-5-(trifluoromethyl)-1H-pyrazole-4-carboxamide], the IC50 in test [1] was 107 nM; in test [2], 44 nM; in test [3], 123 nM.

Regarding `Cc1nc(-n2nccn2)c(Cl)cc1NC(=O)c1cnn(-c2cnc(N)c3ccccc23)c1C(F)(F)F` [Cpd 180, 1-(1-aminoisoquinolin-4-yl)-N-(5-chloro-2-methyl-6-(2H-1,2,3-triazol-2-yl)pyridin-3-yl)-5-(trifluoromethyl)-1H-pyrazole-4-carboxamide], the IC50 turned out to be 26 nM in test [1], 81 nM in test [2] and 79 nM in test [3].

With `N#Cc1c(C(=O)Nc2cnc(-n3nccn3)c(Cl)c2)cnn1-c1cccc2ncccc12` [Cpd 186, N-(5-Chloro-6-(2H-1,2,3-triazol-2-yl)pyridin-3-yl)-5-cyano-1-(quinolin-5-yl)-1H-pyrazole-4-carboxamide], the IC50 in test [1] is 380 nM; in test [2] it was 891 nM; in test [3], 1120 nM.

With `O=C(Nc1cnc(-n2nccn2)c(Cl)c1)c1cnn(-c2cccc3ncccc23)c1Cl` [Cpd 187, 5-Chloro-N-(5-chloro-6-(2H-1,2,3-triazol-2-yl)pyridin-3-yl)-1-(quinolin-5-yl)-1H-pyrazole-4-carboxamide], the IC50 amounted to 178 nM in test [1], 112 nM in test [2] and 162 nM in test [3].

As for `C#Cc1cc(NC(=O)c2cnn(-c3cccc4c(=O)[nH]ccc34)c2C(F)(F)F)c(C)nc1-n1nccn1` [Cpd 190, N-(5-ethynyl-2-methyl-6-(2H-1,2,3-triazol-2-yl)pyridin-3-yl)-1-(1-oxo-1,2-dihydroisoquinolin-5-yl)-5-(trifluoromethyl)-1H-pyrazole-4-carboxamide], the IC50 turned out to be 170 nM in test [1], 93 nM in test [2] and 186 nM in test [3].

As to `CCc1nc(-n2nccn2)c(Cl)cc1NC(=O)c1cnn(-c2cccc3nccn23)c1C(F)(F)F` [Cpd 195, N-(5-chloro-2-ethyl-6-(2H-1,2,3-triazol-2-yl)pyridin-3-yl)-1-(imidazo[1,2-a]pyridin-5-yl)-5-(trifluoromethyl)-1H-pyrazole-4-carboxamide], the values for the IC50 in test [1], in test [2] and in test [3] were 324 nM, 71 nM and 107 nM, respectively.

Turning to `CCc1cc(NC(=O)c2cnn(-c3cccc4nccn34)c2C(F)(F)F)c(CC)nc1-n1nccn1` [Cpd 196, N-(2,5-diethyl-6-(2H-1,2,3-triazol-2-yl)pyridin-3-yl)-1-(imidazo[1,2-a]pyridin-5-yl)-5-(trifluoromethyl)-1H-pyrazole-4-carboxamide], the IC50 stood at 3160 nM in test [1], 41 nM in test [2] and 83 nM in test [3].

`Cc1ccc(-n2ncc(C(=O)Nc3ccnc(C(F)(F)F)c3)c2C(F)(F)F)c2ccnn12` [Cpd 207, 1-(7-methylpyrazolo[1,5-a]pyridin-4-yl)-5-(trifluoromethyl)-N-(2-(trifluoromethyl)pyridin-4-yl)-1H-pyrazole-4-carboxamide]: the IC50 was 331 nM in test [1], 513 nM in test [2] and 525 nM in test [3].

As for `O=C(Nc1ccnc(C(F)(F)F)c1)c1cnn(-c2cnc(N3CC(O)C3)c3sccc23)c1C(F)(F)F` [Cpd 210, 1-(7-(3-hydroxyazetidin-1-yl)thieno[2,3-c]pyridin-4-yl)-5-(trifluoromethyl)-N-(2-(trifluoromethyl)pyridin-4-yl)-1H-pyrazole-4-carboxamide], the IC50 in test [1] was 72 nM; in test [2], 380 nM; in test [3], 417 nM.

In the case of `Cc1nc2c(-n3ncc(C(=O)Nc4cnc(-n5nccn5)c(C#N)c4)c3C(F)(F)F)cccc2o1` [Cpd 219, N-(5-cyano-6-(2H-1,2,3-triazol-2-yl)pyridin-3-yl)-1-(2-methylbenzo[d]oxazol-4-yl)-5-(trifluoromethyl)-1H-pyrazole-4-carboxamide], the IC50 in test [1] is 2690 nM; in test [2], 126 nM; in test [3], 102 nM.

Take `Cc1cc2nccc(-n3ncc(C(=O)Nc4cnc(-n5nccn5)c(C#N)c4)c3C(F)(F)F)c2s1` [Cpd 232, N-(5-cyano-6-(2H-1,2,3-triazol-2-yl)pyridin-3-yl)-1-(2-methylthieno[3,2-b]pyridin-7-yl)-5-(trifluoromethyl)-1H-pyrazole-4-carboxamide]: the IC50 stood at 891 nM in test [1], 182 nM in test [2] and 145 nM in test [3].

As for `O=C(Nc1cnc(-n2nccn2)c(Cl)c1)c1cnn(-c2cccc3cncn23)c1C(F)(F)F` [Cpd 233, N-(5-chloro-6-(2H-1,2,3-triazol-2-yl)pyridin-3-yl)-1-(imidazo[1,5-a]pyridin-5-yl)-5-(trifluoromethyl)-1H-pyrazole-4-carboxamide], the IC50 in test [1] is 871 nM; in test [2], 240 nM; in test [3], 331 nM.

Take `O=C(Nc1cnc(-n2nccn2)c(Cl)c1)c1cnn(-c2ccc3nccn3n2)c1C(F)(F)F` [Cpd 242, N-(5-chloro-6-(2H-1,2,3-triazol-2-yl)pyridin-3-yl)-1-(imidazo[1,2-b]pyridazin-6-yl)-5-(trifluoromethyl)-1H-pyrazole-4-carboxamide]: the IC50 in test [1] was 437 nM; in test [2], 54 nM; in test [3] it was 65 nM.
